Assay [1] has as its system TNFα production in LPS-stimulated human monocytes. The assay can be described thus: Cot Monocyte TNFα Cell Based Assay. The following applies: Homo sapiens, Monocyte, read-out: EC50 TNF. Put shortly:
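Cells at 5,000/well were pretreated with compound for 1 h at 37 °C (0.5% DMSO final), then stimulated with 50 pg/ml LPS for 4 h at 37 °C. Supernatant TNFα was measured by two-antibody TR-FRET after overnight room-temperature incubation; values are percent of control between unstimulated and stimulated wells.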

Assay [2] deals with T1, human Cot catalytic domain (30-397 amino acids) (Homo sapiens, UniProt P41279).
T1 construct: Purified recombinant human Cot catalytic domain (30-397 amino acids) was purchased from Cama Biosciences; purchased Cama Biosciences (so in the source)
T1 sequence (P41279 30-397): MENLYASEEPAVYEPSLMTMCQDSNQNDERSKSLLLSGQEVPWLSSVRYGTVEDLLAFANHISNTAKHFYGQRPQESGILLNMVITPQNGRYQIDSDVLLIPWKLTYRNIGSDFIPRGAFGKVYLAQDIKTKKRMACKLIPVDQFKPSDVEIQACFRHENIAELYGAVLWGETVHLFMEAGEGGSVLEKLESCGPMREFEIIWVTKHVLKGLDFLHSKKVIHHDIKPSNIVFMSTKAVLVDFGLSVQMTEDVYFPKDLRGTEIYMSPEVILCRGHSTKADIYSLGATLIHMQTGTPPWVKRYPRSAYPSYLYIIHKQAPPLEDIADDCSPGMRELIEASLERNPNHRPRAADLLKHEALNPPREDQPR
The assay can be described thus: High Throughput Cot Biochemical Assay (KinEASE TR-FRET). The following applies: read-out: IC50 HTRF. Put shortly: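 Reaction of 5 nM recombinant human Cot catalytic domain (aa 30-397) with 1 μM STK3 peptide (XL665-labeled) and 400 μM ATP in 10 mM MOPS pH 7.0, 10 mM MgOAc, 1 mM DTT, 0.5 mg/mL BSA, 0.1% DMSO. Phosphopeptide detected by TR-FRET with europium anti-phospho antibody.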
In general terms: Time-resolved FRET reads energy transfer from a long-lived donor to a nearby acceptor.

Where [3] appears, read: TNFα in LPS-stimulated human monocytes.
[4] abbreviates: Cot biochemical HTRF (KinEASE TR-FRET) assay.
Setting [5] is: Cot KinEASE TR-FRET (HTRF) biochemical assay, 400 μM ATP.
The mark [6] stands for this setting: LPS-stimulated human monocytes, TNFα TR-FRET.
[7] abbreviates: Cot KinEASE TR-FRET, 400 μM ATP.

Where two headings read alike, the source gives them in different places.

In general, EC50 refers to the concentration needed to bring the measured effect to its halfway point. A word on the IC50: it is the concentration at which inhibition is half-maximal. Turning to `CC(C)(C)N1CCC(n2cc([C@@H](Nc3cc(Cl)c4ncc(C#N)c(Nc5ccc(F)c(C(F)(F)F)c5)c4c3)c3ccccc3)nn2)CC1` [Example 505, (S)-6-(((1-(1-(tert-butyl)piperidin-4-yl)-1H-1,2,3-triazol-4-yl)(phenyl)methyl)amino)-8-chloro-4-((4-fluoro-3-(trifluoromethyl)phenyl)amino)quinoline-3-carbonitrile], the EC50 in assay [1] (setting [3]) came out at 2.62 µM. In addition, the IC50 in assay [2] (setting [4]) came to 0.24 µM.

On to `[2H][C@](Nc1cc(Cl)c2ncc(C#N)c(N[C@@H](CC#N)c3ccccc3)c2c1)(c1ccc(F)cc1)c1cn(C2CC2)nn1` [Example 334, 8-chloro-4-(((S)-2-cyano-1-phenylethyl)amino)-6-(((S)-(1-cyclopropyl-1H-1,2,3-triazol-4-yl)(4-fluorophenyl)methyl-d)amino)quinoline-3-carbonitrile], for which the half-maximal effective concentration (EC50) in assay [1] (setting [3]) is greater than 10 µM. In assay [2] (setting [5]), the IC50 stood at 0.258 µM.

Take `CCN1CCC(n2cc([C@H](Nc3cc(Cl)c4ncc(C#N)c(Nc5ccc(F)c(Cl)c5)c4c3)c3ccccc3)nn2)CC1` [Example 918, (R)-8-chloro-4-((3-chloro-4-fluorophenyl)amino)-6-(((1-(1-ethylpiperidin-4-yl)-1H-1,2,3-yl)(phenyl)methyl)amino) quinoline-3-carbonitrile]: the concentration for a half-maximal effect (EC50) in assay [1] (setting [6]) was 8.58 µM. Besides, the half-inhibitory concentration (IC50) in assay [2] (setting [7]) was determined as 0.194 µM.

Take `[2H][C@](Nc1cc(C#N)c2ncc(C#N)c(NCC(C)(C)C)c2c1)(c1cccc(C#N)c1)c1cn(-c2cccnc2)nn1` [Example 1005, (S)-6-(((3-cyanophenyl)(1-(pyridin-3-yl)-1H-1,2,3-triazol-4-yl)methyl-d)amino)-4-(neopentylamino) quinoline-3,8-dicarbonitrile]: the 50% effective concentration (EC50) in assay [1] (setting [6]) is no less than 1 µM. Further, the IC50 in assay [2] (setting [7]) is no less than 10 µM.

For the molecule `[2H][C@](Nc1cc(Cl)c2ncc(C#N)c(Nc3cccc(Cl)c3C(C)=O)c2c1)(c1ccc(F)cc1)c1cn(C2CC2)nn1` [Example 946, (S)-4-((2-acetyl-3-chlorophenyl)amino)-8-chloro-6-(((1-cyclopropyl-1H-1,2,3-triazol-4-yl) (4-fluorophenyl)methyl-d)amino)quinoline-3-carbonitrile], the EC50 in assay [1] (setting [6]) is no less than 1 µM. In addition, the IC50 in assay [2] (setting [7]) is 0.745 µM.

Consider `CC(C)(C)N1CCC(n2cc([C@@H](Nc3cc(Cl)c4ncc(C#N)c(Nc5cncc(Cl)c5)c4c3)c3ccccc3)nn2)CC1` [Example 780, (S)-6-(((1-(1-(tert-butyl)piperidin-4-yl)-1H-1,2,3-triazol-4-yl)(phenyl)methyl)amino)-8-chloro-4-((5-chloropyridin-3-yl)amino)quinoline-3-carbonitrile], for which the EC50 in assay [1] (setting [3]) is 0.865 µM. In assay [2] (setting [4]), the IC50 amounted to 0.02 µM.

With `CC(C)(C)CNc1c(C#N)cnc2c(Cl)cc(N[C@@H](c3cccc(C4(C#N)CC4)c3)c3cn(C4(C(F)(F)F)CC4)nn3)cc12` [Example 1091, (S)-8-chloro-6-(((3-(1-cyanocyclopropyl)phenyl)(1-(1-(trifluoromethyl)cyclopropyl)-1H-1,2,3-triazol-4-yl)methyl)amino)-4-(neopentylamino)quinoline-3-carbonitrile], the EC50 in assay [1] (setting [6]) is no less than 1 µM. Also, the 50% inhibitory concentration (IC50) in assay [2] (setting [7]) is 0.028 µM.

For the molecule `[2H][C@](Nc1cc(Cl)c2ncc(C#N)c(NC3CC(F)(F)C3)c2c1)(c1ccc(F)cc1)c1cn(C2CC2)nn1` [Example 204, (S)-8-chloro-6-(((1-cyclopropyl-1H-1,2,3-triazol-4-yl)(4-fluorophenyl)methyl-d)amino)-4-((3,3-difluorocyclobutyl)amino)quinoline-3-carbonitrile], the EC50 in assay [1] (setting [3]) is 1.06 µM. The IC50 in assay [2] (setting [5]) stood at 0.097 µM.

In the case of `[2H]C(Nc1cc(Cl)c2ncc(C#N)c(NC3CC4CCCC(C4)C3)c2c1)(c1ccc(F)cc1)c1cn(C2CC2)nn1` (stereo in doubt) [Example 278, 4-(((1R,5S)-bicyclo[3.3.1]nonan-3-yl)amino)-8-chloro-6-(((S)-(1-cyclopropyl-1H-1,2,3-triazol-4-yl)(4-fluorophenyl)methyl-d)amino)quinoline-3-carbonitrile], the EC50 in assay [1] (setting [3]) was greater than 10 µM. Further, the IC50 in assay [2] (setting [5]) came to 0.222 µM.

As for `CC(C)(C)N1CCC(n2cc([C@@H](Nc3cc(Cl)c4ncc(C#N)c(NC5C6CC7CC(C6)CC5C7)c4c3)c3ccccc3)nn2)CC1` (stereo partly drawn) [Example 635, 4-(((1S,3S,5S,7S)-adamantan-2-yl)amino)-6-(((S)-(1-(1-(tert-butyl)piperidin-4-yl)-1H-1,2,3-triazol-4-yl)(phenyl)methyl)amino)-8-chloroquinoline-3-carbonitrile], in assay [1] (setting [3]), the EC50 is 1.08 µM. The 50% inhibitory concentration (IC50) in assay [2] (setting [4]) is 0.013 µM.

On to `Cc1c([C@H](Nc2cc(Cl)c3ncc(C#N)c(NCC(C)(C)C)c3c2)c2cn(C3(C(F)(F)F)CC3)nn2)cccc1-n1ccnn1` [Example 1063, (S)-8-chloro-6-(((2-methyl-3-(1H-1,2,3-triazol-1-yl)phenyl)(1-(1-(trifluoromethyl)cyclopropyl)-1H-1,2,3-triazol-4-yl)methyl)amino)-4-(neopentylamino)quinoline-3-carbonitrile], for which the EC50 in assay [1] (setting [6]) was 0.073 µM. Moreover, in assay [2] (setting [7]), the 50% inhibitory concentration (IC50) turned out to be 0.006 µM.

For the molecule `CC(C)(C)N1CCC(n2cc([C@@H](Nc3cc(Cl)c4ncc(C#N)c(Nc5ccc(F)c(Cl)c5)c4c3)c3cccc(C(=O)N4CCC4)c3)nn2)CC1` [Example 675, (S)-6-(((3-(azetidine-1-carbonyl)phenyl)(1-(1-(tert-butyl)piperidin-4-yl)-1H-1,2,3-triazol-4-yl)methyl)amino)-8-chloro-4-((3-chloro-4-fluorophenyl)amino)quinoline-3-carbonitrile], the half-maximal effective concentration (EC50) in assay [1] (setting [3]) was 0.081 µM. In addition, in assay [2] (setting [4]), the 50% inhibitory concentration (IC50) was determined as 0.001 µM.

On to `CC1(Cn2cc([C@@H](Nc3cc(Cl)c4ncc(C#N)c(Nc5cnc(F)c(F)c5)c4c3)c3ccc(F)cc3)nn2)CC1` [Example 412, (S)-8-chloro-4-((5,6-difluoropyridin-3-yl)amino)-6-(((4-fluorophenyl)(1-((1-methylcyclopropyl)methyl)-1H-1,2,3-triazol-4-yl)methyl)amino)quinoline-3-carbonitrile], for which the EC50 in assay [1] (setting [3]) came out at 2.23 µM. In assay [2] (setting [4]), the IC50 was 0.05 µM.

On to `CC[C@@H](Nc1c(C#N)cnc2c(Cl)cc(N[C@H](c3cn(C4CC4)nn3)c3cccc(Cl)c3Cl)cc12)c1ccccc1` [Example 294, 8-chloro-6-(((S)-(1-cyclopropyl-1H-1,2,3-triazol-4-yl)(2,3-dichlorophenyl)methyl)amino)-4-(((R)-1-phenylpropyl)amino)quinoline-3-carbonitrile], for which, in assay [1] (setting [3]), the EC50 was 1.88 µM. Further, the IC50 in assay [2] (setting [5]) is 0.092 µM.

Consider `N#Cc1cnc2c(Cl)cc(N[C@H](c3cn(C4COC4)nn3)c3ccccc3C(F)(F)F)cc2c1Nc1cnc(F)c(F)c1` [Example 501, (S)-8-chloro-4-((5,6-difluoropyridin-3-yl)amino)-6-(((1-(oxetan-3-yl)-1H-1,2,3-triazol-4-yl)(2-(trifluoromethyl)phenyl)methyl)amino)quinoline-3-carbonitrile], for which, in assay [1] (setting [3]), the EC50 amounted to 2.14 µM. Besides, the IC50 in assay [2] (setting [4]) was 0.094 µM.

`CC(C)(C)N1CCC(n2cc([C@@H](Nc3cc(Cl)c4ncc(C#N)c(NCC5CCOCC5)c4c3)c3ccccc3)nn2)CC1` [Example 601, (S)-6-(((1-(1-(tert-butyl)piperidin-4-yl)-1H-1,2,3-triazol-4-yl)(phenyl)methyl)amino)-8-chloro-4-(((tetrahydro-2H-pyran-4-yl)methyl)amino)quinoline-3-carbonitrile]: the EC50 in assay [1] (setting [3]) is 2.06 µM. The IC50 in assay [2] (setting [4]) was determined as 0.064 µM.

For the origin of these results see US10316017B2, “COT modulators and methods of use thereof” (Gilead Sciences, Inc., priority 2015, dated 2019).
